Results on 73 molecules are retold here after PMC12040169 (PLOS Biology, 2025).

This data set in a line: in vitro. The settings on record: human, hela cells, % viability.

Regarding `CC(Sc1ccc(Cl)cc1)C(=O)Nc1ccc(S(=O)(=O)Nc2ccc(Cl)cc2)cc1` (stereo not shown) [CBK264805], the viability – broadly, a read-out of living cells in per cent, often relative to untreated cells – at 28.5 h, 10 µM was 97.9%. As for `O=C(O)CCC(=O)CCC(=O)c1cccs1` [CBK264807], the viability at 28.5 h, 10 µM turned out to be 94.2%.

In the case of `O=C(O)CN1C(=O)/C(=C\c2ccc(Oc3ccc(C(F)(F)F)cc3[N+](=O)[O-])cc2)SC1=S` [CBK264809], the viability at 28.5 h, 10 µM amounted to 97.9%. `COc1ccccc1N(CC(=O)Nc1c(C)cccc1C)S(=O)(=O)c1ccc(C)cc1` [CBK264810]: the viability at 28.5 h, 10 µM turned out to be 96.5%. Regarding `Cc1cc(C)n(CC(O)CN2C(=O)NC(C)(C)C2=O)n1` (stereo not shown) [CBK264811], the viability at 28.5 h, 10 µM came out at 107%. Next, `COc1ccc(C2=C(CC(=O)O)C(=O)CC2)cc1` [CBK264812]: 89.2%; `Cc1cccc(N(CC(=O)Nc2ccc3c(c2)oc2ccccc23)S(=O)(=O)c2ccccc2)c1` [CBK264813]: 101%; `COc1ccc(N(CC(=O)Nc2ccc3c(c2)oc2ccccc23)S(=O)(=O)c2ccccc2)cc1` [CBK264814]: 104%.

With `Cc1[nH]nc(O)c1C(c1ccc(OC(=O)c2ccc(F)cc2)cc1)c1c(O)n[nH]c1C` [CBK264816], the viability at 28.5 h, 10 µM was found to be 96.8%. Regarding `CCC(=O)N1CCN(CCNC=C2C(=O)CC(c3cccs3)CC2=O)CC1` (stereo not shown) [CBK264817], the viability at 28.5 h, 10 µM was 97%. For the molecule `O=C(CCN1C(=O)/C(=C\C=C\c2ccccc2)SC1=S)Nc1ccc(C(=O)O)cc1` [CBK264818], the viability at 28.5 h, 10 µM amounted to 104%.

On to `O=C(COC(=O)c1ccc(Cl)c(Cl)c1)c1ccc(Oc2ccc([N+](=O)[O-])cc2)cc1` [CBK264821], for which the viability at 28.5 h, 10 µM came to 117%. Next, `CCOC(=O)c1sc(Nc2nc(C)cc(OC)n2)nc1C` [CBK264822]: 108%; `CC1(C)NC(=O)N(CC(O)CNC23CC4CC(CC(C4)C2)C3)C1=O` (stereo not shown) [CBK264823]: 95.5%; `O=C(CCC(=O)c1ccc2c(c1)OCCO2)OCC(=O)c1ccc(Cl)c(Cl)c1` [CBK264825]: 87.5%.

As for `Cc1cc(Cl)c(OCCn2c3ccccc3c3ccccc32)c(Br)c1` [CBK264826], the viability at 28.5 h, 10 µM was determined as 92.2%. With `Nc1nnc(SCc2cccc3ccccc23)[nH]1` [CBK264830], the viability at 28.5 h, 10 µM worked out at 103%.

With `N=C1NC(=O)/C(=C\c2cccc(C(=O)O)c2)S1` [CBK264832], the viability at 28.5 h, 10 µM turned out to be 97.6%. On to `CCc1cc2c(=O)c(-c3nc(C)cs3)c(CCCC(=O)O)oc2cc1O` [CBK264834], for which the viability at 28.5 h, 10 µM was determined as 101%. The value for `Cc1ccc(/C=C/C(=O)O)cc1S(=O)(=O)N(CCO)CCO` [CBK264840] was 99%; that for `Cc1cc(/C=C2\NC(=O)NC2=O)c(C)n1-c1ccc(OCc2ccccc2F)cc1` [CBK264842] was 88.3%; that for `Cn1c(SCC(=O)c2ccc([N+](=O)[O-])cc2)nnc1-c1ccc(N)cc1` [CBK264843] was 97.9%.

For the molecule `CN1CCN(CC(=O)Nc2ccc(OCc3ccccc3)cc2)CC1` [CBK264844], the viability at 28.5 h, 10 µM amounted to 103%. For `COc1ccc(NC2=CC(=O)CC(c3ccc(C)cc3)C2)c(OC)c1` (stereo not shown) [CBK264845], the viability at 28.5 h, 10 µM stood at 111%. On to `COc1ccccc1OCCOc1c(Cl)cc(/C=C2\SC(=S)NC2=O)cc1Cl` [CBK264848], for which the viability at 28.5 h, 10 µM amounted to 93.9%. Next, `O=C1/C(=C/c2cn(Cc3cccc4ccccc34)c3ccccc23)C(O)=NN1c1ccccc1` [CBK264849]: 94.7%; `Oc1nc(CSc2nnc(-c3ccncc3)n2-c2ccccc2)nc2ccccc12` [CBK264851]: 97.5%; `CNC(=S)NCCc1c[nH]c2ccccc12` [CBK264853]: 108%. Consider `COc1ccc2nc(Nc3nc(=O)cc(CSc4nc5ccccc5s4)[nH]3)nc(C)c2c1` [CBK264854], for which the viability at 28.5 h, 10 µM stood at 110%.

`COc1cccc(C2C(C(=O)c3ccc(Br)cc3)=C(O)C(=O)N2CCN2CCOCC2)c1OC` (stereo not shown) [CBK264855]: the viability at 28.5 h, 10 µM came to 110%.

As for `Cc1cc(=O)nc(N/C(N)=N/c2cccc([N+](=O)[O-])c2)[nH]1` [CBK264857], the viability at 28.5 h, 10 µM was 102%.

With `COc1ccc(C(=O)C2=C(O)C(=O)N(CCN3CCOCC3)C2c2ccc(O)c(OC)c2)c(C)c1` (stereo not shown) [CBK264858], the viability at 28.5 h, 10 µM was determined as 88%. In the case of `O=C(Oc1ccc(F)cc1C(=O)/C=C/c1ccccc1F)c1cccc([N+](=O)[O-])c1` [CBK264859], the viability at 28.5 h, 10 µM came out at 86.9%.

In the case of `O=C(CC1Sc2ccc(Cl)cc2NC1=O)Nc1ccc([N+](=O)[O-])cc1` (stereo not shown) [CBK264860], the viability at 28.5 h, 10 µM turned out to be 98%. `COCCCN1C(=O)C(O)=C(C(=O)c2ccc(C)o2)C1c1ccc(OC)cc1` (stereo not shown) [CBK264863]: the viability at 28.5 h, 10 µM came out at 103%. `COc1cccc(C2C(C(=O)c3ccc(Cl)cc3)=C(O)C(=O)N2CCCN2CCOCC2)c1` (stereo not shown) [CBK264865]: the viability at 28.5 h, 10 µM is 105%.

`O=C(O)CCC(=O)Nc1ccc(S(=O)(=O)Nc2ccc(I)cc2)cc1` [CBK264866]: the viability at 28.5 h, 10 µM came to 99.9%. For `O=C(Nc1ccc(S(=O)(=O)Nc2ncccn2)cc1)c1ccc(N2C(=O)c3ccccc3C2=O)cc1` [CBK264868], the viability at 28.5 h, 10 µM was found to be 94%. The value for `COc1ccc(C(=O)C2=C(O)C(=O)N(CCCN(C)C)C2c2ccncc2)cc1C` (stereo not shown) [CBK264871] was 102%.

As to `COc1cccc(C(=O)COC(=O)c2ccc3c(c2)C(=O)N(c2ccc(C(C)=O)cc2)C3=O)c1` [CBK264872], the viability at 28.5 h, 10 µM is 84%. Next, `COC(=O)CNC(=O)c1ccc(S(=O)(=O)N2CCOCC2)cc1` [CBK264873]: 109%. Next, `COc1ccc(C(=O)C2=C(O)C(=O)N(CCN(C)C)C2c2cccc([N+](=O)[O-])c2)cc1C` (stereo not shown) [CBK264875]: 85.2%. For the molecule `Cc1cccc(C)c1NC(=O)CN(c1ccc(F)cc1)S(=O)(=O)c1ccc2c(c1)OCCO2` [CBK264878], the viability at 28.5 h, 10 µM stood at 104%. Consider `Cc1ccc(C)c(NC(=S)NCCc2ccc(S(N)(=O)=O)cc2)c1` [CBK264879], for which the viability at 28.5 h, 10 µM worked out at 100%. Next, `COC(=O)CNC(=O)c1ccc(S(=O)(=O)N2CCCC2)cc1` [CBK264880]: 88.4%. In the case of `O=C1c2cccc3cccc(c23)C(=O)N1CCN1CCN(CC(O)COc2ccc(Cl)cc2Cl)CC1` (stereo not shown) [CBK264881], the viability at 28.5 h, 10 µM was determined as 94.5%. For the molecule `Cc1ccc(-c2nnc3s/c(=C\c4ccc([N+](=O)[O-])cc4)c(=O)n23)cc1` [CBK264882], the viability at 28.5 h, 10 µM came to 101%. Turning to `CC1CCc2sc3ncnc(N4CCN(CCOC(c5ccccc5)c5ccccc5)CC4)c3c2C1` (stereo not shown) [CBK264884], the viability at 28.5 h, 10 µM is 86.6%. `O=C(OCn1nnc2ccccc2c1=O)c1cccc([N+](=O)[O-])c1` [CBK264887]: the viability at 28.5 h, 10 µM worked out at 104%. Take `Cc1cccc(NC(=S)NCCc2ccc(S(N)(=O)=O)cc2)c1C` [CBK264889]: the viability at 28.5 h, 10 µM worked out at 86.5%. As to `Cc1cc(C)cc(NS(=O)(=O)c2ccc(NC(=O)C(C)Oc3ccc(Cl)cc3Cl)cc2)c1` (stereo not shown) [CBK264894], the viability at 28.5 h, 10 µM was found to be 108%.

For the molecule `COc1ccc(C(=O)C2=C(O)C(=O)N(CCCN(C)C)C2c2ccc(Cl)c(Cl)c2)c(C)c1` (stereo not shown) [CBK264896], the viability at 28.5 h, 10 µM stood at 98.8%. `Cc1ccc(C(=O)C(NC(=O)c2cccs2)Nc2ccc(S(N)(=O)=O)cc2)cc1` (stereo not shown) [CBK264897]: the viability at 28.5 h, 10 µM was 89%. The value for `Cc1c(Cl)cccc1NC(=S)N1CCC(C(N)=O)(N2CCCCC2)CC1` [CBK264900] was 112%; that for `NS(=O)(=O)c1ccc(NS(=O)(=O)c2ccc(NC(=O)Nc3ccc(Cl)cc3)cc2)cc1` [CBK264902] was 90.9%; that for `Cc1cccn2c(=O)c(/C=C3\SC(=S)NC3=O)c(NCCCN3CCOCC3)nc12` [CBK264904] was 104%. Take `COc1ccc(C(=O)C2=C(O)C(=O)N(Cc3cccnc3)C2c2cccc(OC)c2OC)cc1C` (stereo not shown) [CBK264906]: the viability at 28.5 h, 10 µM was 92.8%. Turning to `CC(C)c1ccc2oc(-c3ccc(NC(=S)NC(=O)c4cncc(Br)c4)cc3)nc2c1` [CBK264913], the viability at 28.5 h, 10 µM worked out at 106%. With `O=c1oc2cc(Oc3ccc([N+](=O)[O-])cc3C(F)(F)F)c(Cl)cc2c2c1CCCC2` [CBK264914], the viability at 28.5 h, 10 µM turned out to be 93.7%.

Turning to `O=c1[nH]c2ccccc2n1CCCSc1nnc2c(n1)[nH]c1ccccc12` [CBK264917], the viability at 28.5 h, 10 µM is 118%. For the molecule `CC(C)Oc1ccc(C(=O)C2=C(O)C(=O)N(Cc3cccnc3)C2c2ccncc2)cc1` (stereo not shown) [CBK264920], the viability at 28.5 h, 10 µM turned out to be 90%. The value for `O=C(CN1CCCCC1)NCCNc1ccc([N+](=O)[O-])cc1Cl` [CBK264922] was 115%; that for `Cc1noc(NS(=O)(=O)c2ccc(NC(=O)C3COc4ccccc4O3)cc2)c1C` (stereo not shown) [CBK264923] was 90.1%; that for `Cc1ccc(C23CC4CC(CC(C(=O)NC(C(=O)O)C(C)C)(C4)C2)C3)cc1` (stereo not shown) [CBK264924] was 110%. `COc1ccc(C(=O)/C=C/c2cccs2)c(OC(=O)c2ccc([N+](=O)[O-])cc2)c1` [CBK264926]: the viability at 28.5 h, 10 µM stood at 118%. With `COc1ccc(OC)c(NC(=S)NCCN2CCOCC2)c1` [CBK264927], the viability at 28.5 h, 10 µM was 96.9%. Turning to `COc1ccc(C(=O)C2=C(O)C(=O)N(Cc3cccnc3)C2c2ccc(OC)cc2OC)c(C)c1` (stereo not shown) [CBK264928], the viability at 28.5 h, 10 µM turned out to be 89.7%. For the molecule `CC(=O)Nc1ccc(Nc2ncnc3scc(-c4ccccc4)c23)cc1` [CBK264930], the viability at 28.5 h, 10 µM came out at 93.6%. Next, `COc1cc(C2C(C(=O)c3ccc(C)o3)=C(O)C(=O)N2Cc2cccnc2)cc(OC)c1OC` (stereo not shown) [CBK264933]: 110%; `CC(NC(=O)/C(=C\c1ccccc1)NC(=O)c1ccc(Br)o1)C(=O)O` (stereo not shown) [CBK264934]: 107%. Regarding `COc1cc(NC(=S)NCc2ccc(S(N)(=O)=O)cc2)cc(OC)c1` [CBK264935], the viability at 28.5 h, 10 µM turned out to be 108%. On to `CC(C)Oc1ccc(C(=O)C2=C(O)C(=O)N(Cc3cccnc3)C2c2cccc([N+](=O)[O-])c2)cc1` (stereo not shown) [CBK264936], for which the viability at 28.5 h, 10 µM was 89.2%. `COC(=O)CC1C(=O)NCCN1C(=O)COc1ccc(Cl)cc1` (stereo not shown) [CBK264938]: the viability at 28.5 h, 10 µM stood at 80%.
